According to paper PMC5844530, “Fosmetpantotenate (RE-024), a phosphopantothenate replacement therapy for pantothenate kinase-associated neurodegeneration: Mechanism of action and efficacy in nonclinical models” (PLoS ONE, 2018):

Tests used:
liver and brain CoA = experiment: Labeled experiments: incorporation of isotopically labeled fosmetpantotenate into CoA; assay type: in vivo, mouse; conditions: 125 μg intrastriatally; 6 h
Text: Fosmetpantotenate was labeled with three ^13C and one ^15N in the PA moiety and with one ^18O in the phosphate moiety, as indicated in Fig 10. The premise of this experiment is the following: if PPA incorporated into CoA originates from fosmetpantotenate metabolism, then all isotope labels (including the ^18O) will be retained in the CoA molecule, resulting in an increase in molecular weight of 6 atomic mass units (AMU) with respect to unlabeled CoA ([M+H]^+ = 774.3 vs 768.3, respectively; Fig 10, Path A). However, if fosmetpantotenate is hydrolyzed to PA, and PA is then re-phosphorylated by WT PanK to yield PPA, or if the ^18O is exchanged with water, then the ^18O would be lost in the process, resulting in a CoA molecule with a 4-AMU increase in molecular weight over unlabeled CoA ([M+H]^+ = 772.3 vs 768.3, respectively, […], Path B). CoA derived from endogenous PA/PPA will have the unchanged molecular weight ([M+H]^+ = 768.3).
Animal phase: C57BL6N mice, 8-week old and 19 to 21 g obtained from Charles River (Como, Italy) were used in these studies. One group of mice (N = 3 per time point) received a single oral dose of 500 mg/kg isotopically labeled fosmetpantotenate dissolved in 20% hydroxypropyl-β-cyclodextrin. Another set of mice (N = 8 per time point) received a direct administration of isotopically labeled fosmetpantotenate at 125 μg (25 mg/mL of aCSF containing 147 mM NaCl, 3.0 mM KCl, 1.2 mM CaCl2, and 1.2 mM MgCl2) via cannula into striatum. Brain, liver, and blood samples were collected at pre-dose, 6 h, 12 h (brain only), and 24 h, and were snap frozen in liquid nitrogen.
Two additional groups of mice (N = 6 per time point for each group) received 3 daily doses (8 am, 2 pm, and 8 pm to mimic an anticipated human dosing schedule) of isotopically labeled fosmetpantotenate at either 1.25 μg (0.625 mg/mL aCSF) or 12.5 μg (6.25 mg/mL aCSF) via ICV infusion cannula (2 μL), for up to 10 consecutive days. Brain (striatum) samples were collected at pre-dose, and at 12 h following the third dose on days 1, 3, 7, and 10, and were snap frozen in liquid nitrogen.
Sample processing: Brain (striatum) and liver tissues were homogenized in a Precellys homogenizer (Bertin technologies, Montigny-le-Bretonneux, France) with 3 volumes of water for each volume of tissue (1:4 dilution). Protein was precipitated by adding 500 μL methanol to 100 μL of homogenate (1:6 dilution), mixed well, and centrifuged. Blood cells (1 volume) were treated with 1:8 v:v water:methanol (1:10 dilution), mixed, and centrifuged. The supernatants (200 μL for brain and blood cells and 100 μL for liver) were dried under nitrogen, reconstituted with 100 μL ammonium acetate 10 mM (pH ~5), and injected (10 μL) into the LC for high resolution mass spectrometry (HRMS) analyses.
CoA determination: An Acquity UPLC (Waters) system was used. Samples were chromatographed on a Luna C18 column (50 x 2.0 mm; 5 μm), with a 0.4 mL/min flow rate and a 10 μL injection volume. The mobile phases were (A), 10 mM ammonium acetate in water, pH 6.8 and (B) acetonitrile:2-propanol (9:1; v:v). The gradient was started with 2% (B) and was increased linearly to reach 20% (B) at 5 min; the gradient was ramped to reach 90% (B) at 5.1 min and kept isocratic at 90% (B) through 7.1 min.
The detector was a Waters QTOF Synapt mass spectrometer, with an electrospray ion source operating in the positive scanning mode acquiring in full scan mode (accuracy <5 ppm). The following exact masses were determined: 768.1230 for CoA, 772.1301 for CoA +4 AMU, and 774.1344 for CoA +6 AMU.
The CoA levels obtained by MS/MS analyses were corrected for ^18O isotopic incorporation. CoA levels were not adjusted for the 1% and 2% of ^12C and ^14N, respectively, in the labeled fosmetpantotenate. […]

[1] = Stability in simulated gastric fluid; assay type: in vitro ADME; conditions: simulated gi fluid; pH 1.2; 3.2 mg/mL pepsin; 10 μM; read-out: half-life (t½) in simulated gastric fluid
Experimental: Stability in simulated gastric fluid: A stock solution of fosmetpantotenate or its individual diastereomers was prepared in 0.1% formic acid in methanol. Simulated gastric fluid, pH 1.2, was prepared with 2 g/L sodium chloride, 3.2 g/L of pepsin, and 0.7% (v/v) HCl. Gastric buffer, pH 1.2, was prepared containing 2 g/L sodium chloride and 0.7% (v/v) HCl. An appropriate aliquot of fosmetpantotenate or individual diastereomers to yield an initial concentration of 10 μM was added to both fluids, and samples were mixed at ~25°C on an orbital shaker. Aliquots (50 μL) were taken at 0, 2, and 4 h; added to 150 μL dimethyl sulfoxide (DMSO) containing an analytical internal standard; vortexed; and analyzed immediately by LC-MS/MS.
Bioanalysis for determinations of analyte stability: Samples were analyzed using a benchtop tandem quadrupole detector (TQD) mass spectrometer (Waters Ltd, Centennial Park, Hertfordshire). […] Suitable retention and peak shape with separation of the 2 diastereomers were obtained. The chromatography column was a Phenomenex-Kinetex XB C18 (2.10 x 50 mm; 2.6 μm), with a 0.7 mL/min flow rate and a 2 μL injection volume. […] The gradient was initiated with 20% B and increased linearly, reaching 40% B at 0.6 min, followed by 50% B at 0.8 min and by 95% B at 0.9 min. Conditions were kept isocratic through 1.2 min, returned to starting conditions (20% B) at 1.25 min, and maintained at 20% B through 1.5 min before the next injection. Since fosmetpantotenate is a mixture of diastereomers which are resolved chromatographically, the fosmetpantotenate MRM area corresponds to the sum of the MRM areas of the individual diastereomers.
The percent of compound remaining was determined from the MRM area response in each sample relative to that in the T = 0 samples (normalized for internal standard). Natural log plots of the percent compound remaining over time were used to determine the t½ of compound disappearance using the relationship t½ = -0.693/λ, where λ is the slope of the natural logarithm of the percent compound remaining vs time curve.

COC(=O)CCNC(=O)[C@H](O)C(C)(C)COP(=O)(N[C@@H](C)C(=O)OC)Oc1ccccc1 (mixture of isomers) [Fosmetpantotenate]
Brain CoA (%) +6 AMU (liver and brain CoA): 36.2%
half-life at 10 μM [1]: > 10 h
